Several values for one entry are separate records, joined by “and”; a condition that tells them apart may be missing. Equal entries are not always repeated. Structures can show the parent of a compound that is named as a salt.
What was measured:
ULK3 = target: T1, ULK3 (Homo sapiens, UniProt Q6PHR2); assay: DSF (ULK3) thermal shift; type: binding
T1 sequence (Q6PHR2 1-472): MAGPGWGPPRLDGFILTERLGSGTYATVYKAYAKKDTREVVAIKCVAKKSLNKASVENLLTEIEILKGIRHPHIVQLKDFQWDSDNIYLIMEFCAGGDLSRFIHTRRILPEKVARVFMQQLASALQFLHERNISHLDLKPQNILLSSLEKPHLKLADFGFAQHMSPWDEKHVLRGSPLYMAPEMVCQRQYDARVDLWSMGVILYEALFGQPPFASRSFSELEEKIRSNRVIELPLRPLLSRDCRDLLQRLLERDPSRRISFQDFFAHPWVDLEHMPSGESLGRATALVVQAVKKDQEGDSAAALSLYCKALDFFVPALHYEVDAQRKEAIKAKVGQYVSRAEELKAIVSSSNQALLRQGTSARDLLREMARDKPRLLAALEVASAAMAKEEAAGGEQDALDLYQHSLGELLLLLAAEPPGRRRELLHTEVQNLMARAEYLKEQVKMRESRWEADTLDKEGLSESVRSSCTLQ

JAK2 = JAK2 (Homo sapiens, UniProt O60674); assay: DSF (JAK2) thermal shift; type: binding
Chain of JAK2 (O60674 whole entry): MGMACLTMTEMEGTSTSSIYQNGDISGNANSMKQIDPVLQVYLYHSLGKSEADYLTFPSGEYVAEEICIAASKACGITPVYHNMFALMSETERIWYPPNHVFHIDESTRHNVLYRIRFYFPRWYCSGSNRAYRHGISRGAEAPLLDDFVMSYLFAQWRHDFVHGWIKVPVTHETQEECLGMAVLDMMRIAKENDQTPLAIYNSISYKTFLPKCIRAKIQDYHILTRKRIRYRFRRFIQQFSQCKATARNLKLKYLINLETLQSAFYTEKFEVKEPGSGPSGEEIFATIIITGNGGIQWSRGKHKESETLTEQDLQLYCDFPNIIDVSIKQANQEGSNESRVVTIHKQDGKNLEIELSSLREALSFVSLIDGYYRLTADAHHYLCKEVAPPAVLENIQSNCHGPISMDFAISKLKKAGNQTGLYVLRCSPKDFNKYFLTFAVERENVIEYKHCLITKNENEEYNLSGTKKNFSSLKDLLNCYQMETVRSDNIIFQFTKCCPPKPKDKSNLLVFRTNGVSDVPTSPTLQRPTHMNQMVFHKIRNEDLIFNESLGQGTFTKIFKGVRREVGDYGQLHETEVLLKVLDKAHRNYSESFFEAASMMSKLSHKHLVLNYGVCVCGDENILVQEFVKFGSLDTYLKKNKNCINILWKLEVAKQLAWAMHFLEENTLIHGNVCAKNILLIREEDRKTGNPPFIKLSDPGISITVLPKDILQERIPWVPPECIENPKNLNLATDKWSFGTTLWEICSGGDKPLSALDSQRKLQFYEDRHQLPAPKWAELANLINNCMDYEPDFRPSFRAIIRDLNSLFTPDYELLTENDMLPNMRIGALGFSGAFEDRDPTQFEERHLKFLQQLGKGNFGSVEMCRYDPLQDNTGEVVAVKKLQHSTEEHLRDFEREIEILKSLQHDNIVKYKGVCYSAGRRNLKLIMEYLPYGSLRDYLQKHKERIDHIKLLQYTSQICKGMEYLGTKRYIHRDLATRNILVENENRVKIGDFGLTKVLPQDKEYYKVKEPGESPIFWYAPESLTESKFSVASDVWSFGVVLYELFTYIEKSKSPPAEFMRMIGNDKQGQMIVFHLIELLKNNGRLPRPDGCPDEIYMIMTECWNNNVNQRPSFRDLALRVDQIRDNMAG

Molecule | DSF (ULK3) ΔTm (° C.) (ULK3) | DSF (JAK2) ΔTm (° C.) (JAK2) [°C]
O=C(c1ccc(-c2ccnc(Nc3cccc(N4CCOCC4)c3)n2)cc1)N1CCC[C@@H]1C(F)(F)F [BR1-047] | 13.4 °C | –
CS(=O)(=O)O.Cc1cnc(Nc2ccc(C3CCN(C)CC3)c(F)c2)nc1Nc1ccc(Cl)c(NS(=O)(=O)C(C)(C)C)c1 [MA9-060, reference compound] | 11.9 °C and 12.6 °C | –
COC[C@H](NC(=O)c1ccc(-c2ccnc(Nc3ccc(N4CCOCC4)cc3)n2)cc1)c1ccccc1 [BR1-038, (R)—N-(2-Methoxy-1-phenylethyl)-4-(2-((4-morpholinophenyl)amino)pyrimidin-4-yl)benzamide] | 8.4 °C | –
N#CCNC(=O)c1ccc(-c2nc(Nc3ccc(N4CCOCC4=O)cc3)ncc2Cl)cc1 [GM1-072, 4-(5-Chloro-2-((4-(3-oxomorpholino)phenyl)amino)pyrimidin-4-yl)-N-(cyanomethyl)benzamide] | 11.8 °C | –
2-Fluoro-N-methyl-4-((4-(4-((2,2,2-trifluoroethyl)carbamoyl)phenyl)pyrimidin-2-yl) amino)benzamide [BH1-106] | 9.9 °C | 0.54
O=C(N[C@H](CO)Cc1ccccc1)c1ccc(-c2ccnc(Nc3ccc(N4CCOCC4)cc3)n2)cc1 [BR1-034, (S)—N-(1-Hydroxy-3-phenylpropan-2-yl)-4-(2-((4-morpholinophenyl)amino)pyrimidin-4-yl)benzamide] | 9.1 °C | –
O=C(NCC(F)(F)F)c1ccc(-c2ccnc(Nc3ccc(N4CCOCC4)cc3N3CCOCC3)n2)cc1 [BR1-054] | 1.3 °C | –
O=C(NCC(F)(F)F)c1ccc(-c2ccnc(Nc3cccc(N4CCOCC4)c3)n2)cc1 [BR1-045, 4-(2-((3-Morpholinophenyl)amino)pyrimidin-4-yl)-N-(2,2,2-trifluoroethyl)benzamide] | 14.7 °C | –
N#CCNC(=O)c1ccc(-c2ncnc3[nH]ccc23)cc1 [BL4-136] | 5.1 °C | 1
CC(C)[C@H](CO)NC(=O)c1ccc(-c2ccnc(Nc3ccc(N4CCOCC4)cc3)n2)cc1 [BH1-063, (R)—N-(1-Hydroxy-3-methylbutan-2-yl)-4-(2-((4-morpholinophenyl)amino)pyrimidin-4-yl)benzamide] | 7.9 °C | 3.6
CN1CCN(c2cccc(Nc3nccc(-c4ccc(C(=O)N5CCC[C@@H]5C(F)(F)F)cc4)n3)c2)CC1 [BH2-011, (R)-(4-(2-((3-(4-Methylpiperazin-1-yl)phenyl)amino)pyrimidin-4-yl)phenyl) (2-(trifluoromethyl)pyrrolidin-1-yl) methanone] | 14.5 °C and 14.4 °C | –
N#CCNC(=O)c1ccc(-c2ccnc(Nc3ccc(N4CCOCC4=O)cc3)n2)cc1 [BH1-090, N-(Cyanomethyl)-4-(2-((4-(3-oxomorpholino)phenyl)amino)pyrimidin-4-yl)benzamide] | 7.5 °C | 1.3
O=C(c1ccc(-c2ccnc(Nc3cccc(N4CCOCC4)c3)n2)cc1)N1CCC[C@H]1C(F)(F)F [BR1-048] | 9.3 °C | –
CN1CCC(c2cnc(Nc3nc(-c4ccc(C(=O)NCC#N)cc4)c4cc[nH]c4n3)cc2F)CC1 [RF1-058, N-(Cyanomethyl)-4-(2-((4-fluoro-5-(1-methylpiperidin-4-yl)pyridin-2-yl)amino)-7H-pyrrolo-[2,3-d]pyrimidin-4-yl)benzamide] | 6.8 °C | –
CN1CCN(c2cc(F)cc(Nc3nccc(-c4ccc(C(=O)NCC(F)(F)F)cc4)n3)c2)CC1 [BR1-051] | 11.1 °C | –
N#CCNC(=O)c1ccc(-c2ccnc(Nc3ccc(N4CCOCC4)cc3)n2)cc1 [Momelotinib (BL4-106), Momelotinib, reference compound] | 14.3 °C and 10.6 °C and 13.2 °C | –
COC[C@H](Cc1ccccc1)NC(=O)c1ccc(-c2ccnc(Nc3ccc(N4CCOCC4)cc3)n2)cc1 [BR1-012] | 5.8 °C | 0.1
CN1CCN(c2cccc(Nc3nccc(-c4ccc(C(=O)N5CCC[C@H]5C(F)(F)F)cc4)n3)c2)CC1 [BH2-013, (S)-(4-(2-((3-(4-Methylpiperazin-1-yl)phenyl)amino)pyrimidin-4-yl)phenyl) (2-(trifluoromethyl)pyrrolidin-1-yl) methanone] | 10.9 °C | –

Molecule | DSF (ULK3) ΔTm (° C.) (ULK3) | DSF (JAK2) ΔTm (° C.) (JAK2) [°C]
COC(=O)c1ccc(Nc2nccc(-c3ccc(C(=O)NCC(F)(F)F)cc3)n2)cc1F [BH1-104, Methyl 2-fluoro-4-((4-(4-((2,2,2-trifluoroethyl)carbamoyl)phenyl)pyrimidin-2-yl)amino)benzoate] | 6.9 °C | 0.05
CN1CCN(c2cc(F)cc(Nc3nccc(-c4ccc(C(=O)N5CCC[C@H]5C(F)(F)F)cc4)n3)c2)CC1 [BR1-053] | 10.5 °C | –
COc1cc(N2CCOCC2)ccc1Nc1nccc(-c2ccc(C(=O)NCC(F)(F)F)cc2)n1 [BH1-132, 4-(2-((2-Methoxy-4-morpholinophenyl)amino)pyrimidin-4-yl)-N-(2,2,2-trifluoroethyl)benzamide] | 10.0 °C | 0.1
O=C(NCC(F)(F)F)c1ccc(-c2ccnc(Nc3ccc(N4CCOCC4)c(F)c3)n2)cc1 [BH1-138, 4-(2-((3-Fluoro-4-morpholinophenyl)amino)pyrimidin-4-yl)-N-(2,2,2-trifluoroethyl)benzamide] | – | 0.5
N#CCNC(=O)c1ccc(-c2nc(Nc3ccc(N4CCOCC4=O)cc3)ncc2F)cc1 [GM1-036BA2, N-(Cyanomethyl)-4-(5-fluoro-2-((4-(3-oxomorpholino)phenyl)amino)pyrimidin-4-yl)benzamide] | 8.7 °C | 1.1
N#CCNC(=O)c1ccc(-c2nc(Nc3ccc(N4CCOCC4)cc3)ncc2F)cc1 [GM1-034, N-(Cyanomethyl)-4-(5-fluoro-2-((4-morpholinophenyl)amino)pyrimidin-4-yl)benzamide] | 10.6 °C | –
Cc1cnc(Nc2ccc(CN3CCN(C)CC3)cc2)nc1-c1ccc(C(=O)NCC#N)cc1 [BH1-102] | 7.2 °C | 4.68
N#CC(NC(=O)c1ccc(-c2ccnc(Nc3ccc(N4CCOCC4)cc3)n2)cc1)c1ccccc1 (stereo not drawn) [BL4-153, N-(Cyano (phenyl)methyl)-4-(2-((4-morpholinophenyl)amino)pyrimidin-4-yl)benzamide] | 11.6 °C | –
N#CCNC(=O)c1ccc(-c2ccnc(Nc3ccc(N4CCOCC4)cc3)n2)cc1 [BL4-106 HCl salt, reference compound] | 14.3 °C and 9.9 °C | –
COC[C@@H](NC(=O)c1ccc(-c2ccnc(Nc3ccc(N4CCOCC4)cc3)n2)cc1)c1ccccc1 [BR1-036, (S)—N-(2-Methoxy-1-phenylethyl)-4-(2-((4-morpholinophenyl)amino)pyrimidin-4-yl)benzamide] | 9.8 °C | –
CN1CCN(c2cc(F)cc(Nc3nccc(-c4ccc(C(=O)N5CCC[C@@H]5C(F)(F)F)cc4)n3)c2)CC1 [BR1-052] | 14.1 °C | –
CN1CCC(c2ccc(Nc3ncc(F)c(-c4ccc(C(=O)NCC#N)cc4)n3)cc2F)CC1 [GM1-064, N-(Cyanomethyl)-4-(5-fluoro-2-((3-fluoro-4-(1-methylpiperidin-4-yl)phenyl)amino)pyrimidin-yl)benzamide] | 8.0 °C | 3.68
Cc1cnc(Nc2ccc(C(=O)NC3CCN(C)CC3)c(F)c2)nc1Nc1ccc(Cl)c(NS(=O)(=O)C(C)(C)C)c1 [SG3-179, reference compound] | 10.6 °C | –
Cc1cnc(Nc2ccc(N3CCOCC3=O)cc2)nc1-c1ccc(C(=O)NCC#N)cc1 [GM1-030, N-(Cyanomethyl)-4-(5-methyl-2-((4-(3-oxomorpholino)phenyl)amino)pyrimidin-4-yl)benzamide] | 8.1 °C | 5.5
Cc1cnc(Nc2ccc(N3CCOCC3)cc2)nc1-c1ccc(C(=O)NCC#N)cc1 [GM1-032, N-(Cyanomethyl)-4-(5-methyl-2-((4-(morpholino)phenyl)amino)pyrimidin-4-yl)benzamide] | 8.4 °C | –
CN1CCN(c2ccc(Nc3ncc(F)c(-c4ccc(C(=O)NCC#N)cc4)n3)cc2F)CC1 [BH1-095] | 8.8 °C | –
CN1CCN(c2cccc(Nc3nccc(-c4ccc(C(=O)NCC(F)(F)F)cc4)n3)c2)CC1 [BH2-010, 4-(2-((3-(4-Methylpiperazin-1-yl)phenyl)amino)pyrimidin-4-yl)-N-(2,2,2-trifluoroethyl)benzamide] | 14.4 °C | –
N#CCNC(=O)c1ccc(-c2nc(Nc3ccc(N4CCOCC4)cc3)ncc2Cl)cc1 [GM1-048, 4-(5-Chloro-2-((4-morpholinophenyl)amino)pyrimidin-4-yl)-N-(cyanomethyl)benzamide] | 11.0 °C and 13.1 °C | 6.48

From US20260103455A1, “ULK3 INHIBITORS AND USES THEREOF” (H. LEE MOFFITT CANCER CENTER AND RESEARCH INSTITUTE, INC., priority 2022, published 2026)
